MIC data for 20 compounds are collected here from ChEMBL document CHEMBL4602605, “Fluoroquinolones structural and medicinal developments (2013-2018): Where are we now?” (Bioorg Med Chem, 2019).

Common to all, as to assay type: functional
Test [1] has as its system Staphylococcus aureus. Briefly: Antimicrobial activity against methicillin-resistant Staphylococcus aureus ATCC 33591 incubated for 18 to 24 hrs by two-fold serial dilution method.
In test [2] the test system is Enterococcus faecium. Briefly: Antimicrobial activity against Enterococcus faecium ATCC 700221 incubated for 18 to 24 hrs by two-fold serial dilution method.
In test [3] the test system is Staphylococcus aureus. Briefly: Antimicrobial activity against methicillin-susceptible Staphylococcus aureus ATCC 29213 incubated for 18 to 24 hrs by two-fold serial dilution method.
The subject of test [4] is Mycobacterium tuberculosis. Briefly: Antimicrobial activity against Mycobacterium tuberculosis H37Rv ATCC 27294 incubated for 7 days by microplate Alamar blue assay. The following applies: H37Rv ATCC 27294, 168 h.
Test [5] relates to Staphylococcus epidermidis. Briefly: Antimicrobial activity against methicillin-susceptible Staphylococcus epidermidis ATCC 12228 incubated for 18 to 24 hrs by two-fold serial dilution method.
The subject of test [6] is Staphylococcus aureus. Briefly: Antimicrobial activity against Staphylococcus aureus ATCC 29213 by CLSI-based broth microdilution method. Conditions: Staphylococcus aureus, ATCC 29213; read-out: MIC.
Test [7] has as its system Pseudomonas aeruginosa. Briefly: Antimicrobial activity against Pseudomonas aeruginosa PAO1 by CLSI-based broth microdilution method. For orientation: Broth dilution looks for growth in wells or tubes with falling amounts of substance.
Test [8] has as its system Escherichia coli. Briefly: Antimicrobial activity against tolC deficient Escherichia coli KD65 by CLSI-based broth microdilution method. Conditions: Escherichia coli, KD65; read-out: MIC.

Converted amounts (≈) assume the structure as drawn.

One may read the MIC as the smallest concentration in the dilution series that meets the test's criterion for growth inhibition. Take `COc1c(N2CCN(C/C(C)=N/Nc3ccc(F)c(Cl)c3)CC2)c(F)cc2c(=O)c(C(=O)O)cn(C3CC3)c12`: the minimum inhibitory concentration (MIC) in test [1] was 0.125 µg/mL (≈ 0.223 µM); in test [2], 64 µg/mL (≈ 114 µM); in test [3], 0.125 µg/mL (≈ 0.223 µM); in test [4], 0.396 µM (≈ 0.222 µg/mL); in test [5], 0.125 µg/mL (≈ 0.223 µM).
Regarding `COc1c(N2CCN(C/C(C)=N/Nc3ccc(C(F)(F)F)cc3)CC2)c(F)cc2c(=O)c(C(=O)O)cn(C3CC3)c12`, the MIC came out at 0.125 µg/mL (≈ 0.217 µM) in test [1]; 64 µg/mL (≈ 111 µM) in test [2]; 0.125 µg/mL (≈ 0.217 µM) in test [3]; 0.394 µM (≈ 0.227 µg/mL) in test [4]; 0.25 µg/mL (≈ 0.434 µM) in test [5].
Turning to `COc1c(N2CCN(C/C(C)=N/Nc3ccncc3)CC2)c(F)cc2c(=O)c(C(=O)O)cn(C3CC3)c12`, the MIC in test [1] was 2 µg/mL (≈ 3.93 µM); in test [2], over 64 µg/mL; in test [3], 2 µg/mL (≈ 3.93 µM); in test [4], 1.78 µM (≈ 0.905 µg/mL); in test [5], 2 µg/mL (≈ 3.93 µM).
In the case of `COc1c(N2CCN(C/C(C)=N/Nc3ccccc3)CC2)c(F)cc2c(=O)c(C(=O)O)cn(C3CC3)c12`, the MIC amounted to 0.25 µg/mL (≈ 0.493 µM) in test [1]; 64 µg/mL (≈ 126 µM) in test [2]; 0.25 µg/mL (≈ 0.493 µM) in test [3]; 0.398 µM (≈ 0.202 µg/mL) in test [4]; 0.25 µg/mL (≈ 0.493 µM) in test [5].
As to `COc1c(N2CCN(CCn3cncn3)CC2)c(F)cc2c(=O)c(C(=O)O)cn(C3CC3)c12`, the MIC in test [1] is 4 µg/mL (≈ 8.76 µM); in test [2] it was over 128 µg/mL; in test [3], 4 µg/mL (≈ 8.76 µM); in test [4] it was 4.1 µM (≈ 1.87 µg/mL); in test [5], 4 µg/mL (≈ 8.76 µM).
In the case of `COc1c(N2CCN(C/C(C)=N/Nc3ccc(F)cc3)CC2)c(F)cc2c(=O)c(C(=O)O)cn(C3CC3)c12`, the MIC in test [1] turned out to be 0.125 µg/mL (≈ 0.238 µM); in test [2], 32 µg/mL (≈ 60.9 µM); in test [3], 0.125 µg/mL (≈ 0.238 µM); in test [4] it was 0.215 µM (≈ 0.113 µg/mL); in test [5], 0.125 µg/mL (≈ 0.238 µM).
As for `COc1c(N2CCN(C/C(C)=N/NC(=O)c3ccccc3)CC2)c(F)cc2c(=O)c(C(=O)O)cn(C3CC3)c12`, the MIC in test [1] is 0.125 µg/mL (≈ 0.233 µM); in test [2] it was over 128 µg/mL; in test [3], 0.125 µg/mL (≈ 0.233 µM); in test [4], 0.226 µM (≈ 0.121 µg/mL); in test [5], 0.125 µg/mL (≈ 0.233 µM).
On to `COc1c(N2CCN(C/C(C)=N/Nc3nc4ccccc4[nH]3)CC2)c(F)cc2c(=O)c(C(=O)O)cn(C3CC3)c12`, for which the MIC is 1 µg/mL (≈ 1.83 µM) in test [1]; 128 µg/mL (≈ 234 µM) in test [2]; 1 µg/mL (≈ 1.83 µM) in test [3]; 0.434 µM (≈ 0.238 µg/mL) in test [4]; 1 µg/mL (≈ 1.83 µM) in test [5].
On to `O=C(O)c1cn(C2CC2)c2c3c(c(F)cc2c1=O)N1CCCC1CCO3` (stereo not given), for which the figures for the MIC in test [6], in test [7] and in test [8] were 0.21 µg/mL (≈ 0.586 µM), 21 µg/mL (≈ 58.6 µM) and 0.008 µg/mL (≈ 0.0223 µM), respectively.
`COc1c(N2CCN(CCn3ccnn3)CC2)c(F)cc2c(=O)c(C(=O)O)cn(C3CC3)c12`: the MIC in test [1] is 4 µg/mL (≈ 8.76 µM); in test [2] it was over 128 µg/mL; in test [3] it was 4 µg/mL (≈ 8.76 µM); in test [4], 14.2 µM (≈ 6.48 µg/mL); in test [5], 4 µg/mL (≈ 8.76 µM).
Take `N[C@@H]1C[C@H]2COCc3c(c(F)cc4c(=O)c(C(=O)O)cn(C5CC5)c34)N2C1`: the MIC was determined as 0.015 µg/mL (≈ 0.0402 µM) in test [6], 0.25 µg/mL (≈ 0.67 µM) in test [7] and 0.008 µg/mL (≈ 0.0214 µM) in test [8].
In the case of `COc1c(N2CCN(C/C(C)=N/Nc3ccc(Cl)cc3)CC2)c(F)cc2c(=O)c(C(=O)O)cn(C3CC3)c12`, the MIC in test [1] is 0.06 µg/mL (≈ 0.111 µM); in test [2], 64 µg/mL (≈ 118 µM); in test [3] it was 0.06 µg/mL (≈ 0.111 µM); in test [4], 0.433 µM (≈ 0.235 µg/mL); in test [5] it was 0.125 µg/mL (≈ 0.231 µM).
As for `N[C@@H]1C[C@H]2CCCc3c(c(F)cc4c(=O)c(C(=O)O)cn(C5CC5)c34)N2C1`, the MIC in test [6] came out at 8 µg/mL (≈ 21.5 µM); in test [7], 32 µg/mL (≈ 86.2 µM); in test [8], 8 µg/mL (≈ 21.5 µM).
Regarding `COc1ccc(C(=O)N/N=C(\C)CN2CCN(c3c(F)cc4c(=O)c(C(=O)O)cn(C5CC5)c4c3OC)CC2)cc1`, the minimal inhibitory concentration (MIC) in test [1] is 0.25 µg/mL (≈ 0.442 µM); in test [2], 64 µg/mL (≈ 113 µM); in test [3], 0.125 µg/mL (≈ 0.221 µM); in test [4] it was 0.214 µM (≈ 0.121 µg/mL); in test [5], 0.125 µg/mL (≈ 0.221 µM).
For the compound `COc1c(N2CCN(C/C(C)=N/Nc3ccnc4cc(Cl)ccc34)CC2)c(F)cc2c(=O)c(C(=O)O)cn(C3CC3)c12`, the MIC in test [1] is 0.5 µg/mL (≈ 0.843 µM); in test [2], over 128 µg/mL; in test [3], 0.5 µg/mL (≈ 0.843 µM); in test [4], 0.266 µM (≈ 0.158 µg/mL); in test [5] it was 1 µg/mL (≈ 1.69 µM).
As for `N[C@H]1C[C@H]2CCOc3c(c(F)cc4c(=O)c(C(=O)O)cn(C5CC5)c34)N2C1`, the MIC in test [6] was 0.015 µg/mL (≈ 0.0402 µM); in test [7], 0.093 µg/mL (≈ 0.249 µM); in test [8], 0.004 µg/mL (≈ 0.0107 µM).
In the case of `N[C@@H]1CCN2c3c(F)cc4c(=O)c(C(=O)O)cn(C5CC5)c4c3SC[C@H]12`, the MIC in test [6] worked out at 0.125 µg/mL (≈ 0.333 µM); in test [7], 4 µg/mL (≈ 10.7 µM); in test [8] it was 0.03 µg/mL (≈ 0.0799 µM).
Take `COc1c(N2CCN(CCCn3cc([N+](=O)[O-])nc3C)CC2)c(F)cc2c(=O)c(C(=O)O)cn(C3CC3)c12`: the MIC in test [1] is 32 µg/mL (≈ 60.5 µM); in test [2], over 64 µg/mL; in test [3], 32 µg/mL (≈ 60.5 µM); in test [4], 60.3 µM (≈ 31.9 µg/mL); in test [5] it was 32 µg/mL (≈ 60.5 µM).
As for `COc1c(N2CCN(C/C(C)=N/NC(=O)c3ccc(F)cc3)CC2)c(F)cc2c(=O)c(C(=O)O)cn(C3CC3)c12`, the MIC was 0.125 µg/mL (≈ 0.226 µM) in test [1]; over 64 µg/mL in test [2]; 0.125 µg/mL (≈ 0.226 µM) in test [3]; 0.266 µM (≈ 0.147 µg/mL) in test [4]; 0.125 µg/mL (≈ 0.226 µM) in test [5].
Regarding `COc1cccc(N/N=C(\C)CN2CCN(c3c(F)cc4c(=O)c(C(=O)O)cn(C5CC5)c4c3OC)CC2)c1`, the MIC is 0.125 µg/mL (≈ 0.233 µM) in test [1]; over 64 µg/mL in test [2]; 0.125 µg/mL (≈ 0.233 µM) in test [3]; 0.434 µM (≈ 0.233 µg/mL) in test [4]; 0.25 µg/mL (≈ 0.465 µM) in test [5].
